Entries after “also recorded” stand apart in the source; their conditions may differ. Where a SMILES comes first, the peptide text is derived from it. [ ]: non-standard residue; d: D form. dPhe(4-F) = N[C@H](Cc1ccc(F)cc1)C(=O)O
Assays:
[1] = biological target: T1, Abeta monomers (Homo sapiens, UniProt P05067); experiment: Peptide microarray, binding of FITC Abeta monomers to immobilized peptides; settings: for Binding specificity monomer to fibrils: quotient binding signal to monomers / binding signal to fibrils; for Binding specificity monomer to oligomer: quotient binding signal to monomers / binding signal to oligomers
T1 construct: incubate with FITC Abeta monomers, oligomers, fibrils and FITC for 1 hour at room temperature
Procedure: (§1) The procedure for identifying peptides that bind specifically to amyloid beta monomer or specifically to amyloid beta oligomers and for determining the binding specificity of peptides within the meaning of the present invention can thus be as follows. Peptide microarrays comprising various peptides immobilized on a surface, such as derivatives of D3, are each incubated with different species of Abeta (such as monomers, oligomers and fibrils) labeled with a fluorescent dye. A peptide microarray is incubated with only the fluorescent dye to serve as the control. So as to ensure the reproducibility of the results, the incubation of the peptide microarrays can be carried out at least three times for each species. The binding of the fluorescence-labeled Abeta to the immobilized peptides is detected by way of the fluorescent dye. The more Abeta binds to the peptide, the higher the fluorescence signal is. The measured fluorescence signals of the reproductions are standardized, and the […]. This avoids binding of the fluorescence-labeled Abeta via the dye. The binding signals of an Abeta species to a peptide are then averaged. So as to determine the binding specificity, the quotient of the species to which the peptide is to specifically bind and another species is found.
(§2) Pretreatment of the peptide microarray slides: • briefly dip 3× in ethanol (96%) and then wash with H2O (30 minutes) • briefly dry by way of centrifuging
(§3) Preparation of monomers and oligomers: • size exclusion chromatography according to Johansson et al. 2006 (Johansson, A.-S. et al. Physiochemical characterization of the Alzheimer's disease-related peptides Aβ1-42Arctic and Aβ1-42 wt. FEBS Journal 273, 2618-2630 (2006)). • oligomers were fractionated at 8-9 ml, monomers at 16-17 ml.
(§4) Carrying out the peptide microarray: • incubate with FITC Abeta monomers, oligomers, fibrils and FITC for 1 hour at room temperature • wash: TBS-T briefly 3× (only TBS-T buffer is replaced), 3×10 minutes in a flacon, 3×H2O, 3×10 minutes • dry by way of centrifugation • The binding of the fluorescence-labeled Abeta to the immobilized peptides is detected by way of the fluorescent dye using the microarray reader FLA800 from Fuji Film. The more Abeta binds to the peptide, the higher is the fluorescence signal. • carrier set mode: slides • resolution: 10 μm • scan mode: high sensitivity (slow): scan pixel at 200 mm/s • laser: 473 nm • filter: 530 DF 20 • photomultiplier tube (PMT) HV (%): 100 • images were stored as .tif files
(§5) The software, AIDA Metrix, from Raytest was used to evaluate the fluorescence signals:
(§6) To ensure the reproducibility of the results, the incubation of the peptide microarrays is carried out at least three times for each species.
(§7) The measured fluorescence signals of the reproductions are standardized using a median-based standardization, and the control was subtracted from the signal. This avoided the binding of the fluorescence-labeled Abeta via the dye.
(§8) The binding signals of an Abeta species to a peptide were averaged.
So as to determine the binding specificity, the quotient of the species to which the peptide is to specifically bind and another species is created.
Example: binding specificity of peptide X to Abeta monomers=binding signal of peptides X to monomers/binding signal of peptides X to oligomers.

[2] = biological target: T2, Abeta oligomers (Homo sapiens, UniProt P05067); experiment: Peptide microarray, binding of FITC Abeta oligomers to immobilized peptides; settings: 1 hour at room temperature, control subtracted, averaged
Procedure: as §1, §2, §3, §4, §5, §6, §7, §8

[3] = biological target: T3, Abeta fibrils (Homo sapiens, UniProt P05067); experiment: Peptide microarray, binding of FITC Abeta fibrils to immobilized peptides; settings: 1 hour at room temperature, control subtracted, averaged
T3 construct: Pre-incubated Abeta was co-incubated with the peptides
Procedure: as §1, §2
Preparation of fibrils: • incubate Abeta over 3 days, centrifuge, discard supernatant and resuspend in buffer (repeat 3 times)
as §4, §5, §6, §7, §8

[4] = biological target: T2, Abeta oligomers; experiment: QIAD method, elimination of Abeta oligomers (density gradient centrifugation, RP-HPLC); type: biochemical; settings: for Elimination of Abeta oligomers: ratio of Abeta to peptide of 8:1, fractions 4-6, FIG. 2; for Elimination of Abeta oligomers compared to D3: ratio of Abeta to peptide of 8:1, FIG. 2
Procedure: Using the QIAD method for the quantitative characterization of amyloid peptides and/or proteins in a sample, it was possible to quantify the properties of the substances. Pre-incubated Abeta was co-incubated with the peptides. The different Abeta species were separated by way of density gradient centrifugation and quantified in the individual fractions by way of RP-HPLC Abeta. The elimination of the Abeta oligomers in fractions 4-6 was analyzed.

[5] = system: transgenic AD mice; settings: oral administration with drinking water; cited from earlier work
[6] = biological target: T3, Abeta fibrils; experiment: ThT assay, formation of ThT positive Abeta fibrils; type: biochemical; settings: for ThT fluorescence during the entire measuring time period: 48 hours, co-incubation with Abeta, FIG. 3
[7] = system: SH-SY5Y cells; experiment: MTT assay on SH-SY5Y cells without Abeta co-incubation; type: cell-based; settings: FIG. 4a
Text: (§9) No noteworthy toxicity of the peptides according to the invention in therapeutically relevant concentrations was established in the MTT assay on SH-SY5Y cells known to a person skilled in the art (FIG. 4). […] Based on current knowledge, Abeta oligomer is the toxic species.
(§10) The significances are based on the respective concentration with D3 (* p≤0.05; ** p≤0.01; *** p≤0.001; n. s. not significant).

[8] = system: SH-SY5Y cells; experiment: MTT assay on SH-SY5Y cells with Abeta co-incubation; type: cell-based; settings: for Reduction of the toxicity caused by Abeta: co-incubating Abeta with peptide in various concentrations, FIG. 4b; for Reduction of Abeta toxicity compared to D3: respective concentration with D3, FIG. 4b
Text: as §9, §10

T1 sequence (P05067 672-713 limits assumed): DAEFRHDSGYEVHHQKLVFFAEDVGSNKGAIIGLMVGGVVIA
T2 sequence (P05067 672-713 limits assumed): as above
T3 sequence (P05067 672-713 limits assumed): as above

Molecule | Binding specificity with respect to Abeta monomer ([1]; FIG. 1b, quotient of binding signals) | Binding signal to Abeta monomers ([1]; peptide microarray, FITC Abeta, 1 hour at room temperature, control subtracted, averaged) [rfu] | Binding specificity monomer to fibrils [1] | Binding specificity monomer to oligomer [1] | Binding signal to Abeta oligomers [2] [rfu] | Binding signal to Abeta fibrils [3] [rfu] | Elimination of Abeta oligomers [4] [%] | Cognitive abilities of treated transgenic AD mice [5] | Plaque in treated transgenic AD mice [5] | Elimination of Abeta oligomers compared to D3 [4] | ThT fluorescence ([6]; after 48 hours) [rfu] | ThT fluorescence as % of the ThT fluorescence of Abeta control ([6]; after 48 hours) [%] | Toxic effect of the peptide alone on the cells [7] | Reduction of the toxicity caused by Abeta [8] | ThT fluorescence during the entire measuring time period [6] | Reduction of Abeta toxicity compared to D3 [8]
rprtrlhthrnr [D3, reference compound] | less than 1 | 0.5 | 0.6 | 0.8 | 0.6 | 0.8 | 50±10 | significantly improved cognitive abilities | considerably less plaque |  |  |  |  |  |  | 
CC(C)C[C@@H](NC(=O)[C@@H](CCCNC(=N)N)NC(=O)[C@H](NC(=O)[C@@H](CCCNC(=N)N)NC(=O)[C@@H](CCCCN)NC(=O)[C@H](N)CCCNC(=N)N)C(C)C)C(=O)N[C@@H](C(=O)N[C@H](Cc1ccc(O)cc1)C(=O)N[C@H](Cc1c[nH]cn1)C(=O)N[C@H](CCCCN)C(=O)N[C@H](CCCCN)C(=O)N[C@H](CCCNC(=N)N)C(N)=O)C(C)C [ANK5, rkrvrlvyhkkr] (H-[dR][dK][dR][dV][dR][dL][dV][dY][dH][dK][dK][dR]-NH2) |  |  | 2.2 | 5.9 |  |  | 72±2 |  |  | significantly more efficiently than D3 | 1029 | 53 | do not have a toxic effect | reduced; also recorded: reduction in the Abeta toxicity was achieved |  | 
CC[C@@H](C)[C@@H](NC(=O)[C@@H](CCCNC(=N)N)NC(=O)[C@@H](CCCCN)NC(=O)[C@H](N)CCCNC(=N)N)C(=O)N[C@H](CCCNC(=N)N)C(=O)N[C@H](CC(C)C)C(=O)N[C@@H](C(=O)N[C@@H](C(=O)N[C@H](CCCCN)C(=O)N[C@H](CCCCN)C(=O)N[C@H](CCCCN)C(=O)N[C@H](CCCNC(=N)N)C(N)=O)[C@H](C)O)C(C)C [ANK6, rkrirlvtkkkr] (H-[dR][dK][dR][dI][dR][dL][dV][dT][dK][dK][dK][dR]-NH2) |  |  | 1.9 | 4.1 |  |  | 81±3 |  |  | significantly more efficiently than D3 |  |  | do not have a toxic effect | reduced; also recorded: reduction in the Abeta toxicity was achieved | slight increase | more efficient
CC[C@@H](C)[C@@H](NC(=O)[C@@H](CCCNC(=N)N)NC(=O)[C@@H](CCCCN)NC(=O)[C@H](N)CCCNC(=N)N)C(=O)N[C@H](CCCNC(=N)N)C(=O)N[C@H](CC(C)C)C(=O)N[C@@H](C(=O)N[C@H](Cc1ccc(O)cc1)C(=O)N[C@H](Cc1c[nH]cn1)C(=O)N[C@H](Cc1c[nH]c2ccccc12)C(=O)N[C@H](CC(N)=O)C(=O)N[C@H](CCCNC(=N)N)C(N)=O)C(C)C [ANK4, rkrirlvyhwnr] (H-[dR][dK][dR][dI][dR][dL][dV][dY][dH][dW][dN][dR]-NH2) |  |  | 4.3 | 3.3 |  |  | 59±16 |  |  |  |  |  | do not have a toxic effect | reduced; also recorded: reduction in the Abeta toxicity was achieved | slight increase | more efficient
CC[C@@H](C)[C@@H](NC(=O)[C@@H](Cc1c[nH]cn1)NC(=O)[C@H](NC(=O)[C@@H](Cc1ccc(F)cc1)NC(=O)[C@@H](CC(C)C)NC(=O)[C@@H](CCCNC(=N)N)NC(=O)[C@H](NC(=O)[C@@H](CCCNC(=N)N)NC(=O)[C@@H](CCCCN)NC(=O)[C@H](N)CCCNC(=N)N)C(C)C)[C@H](C)O)C(=O)N[C@H](CCCCN)C(=O)N[C@H](CCCNC(=N)N)C(N)=O [ANK7, rkrvrl02thikr] (H-[dR][dK][dR][dV][dR][dL][dPhe(4-F)][dT][dH][dI][dK][dR]-NH2) |  |  | 6.8 | 6.4 |  |  | 73±1 |  |  | significantly more efficiently than D3 |  |  | do not have a toxic effect | reduced; also recorded: reduction in the Abeta toxicity was achieved | slight increase | 

— patent US10174097B2, “Specific A-beta species-binding peptides for the therapy and/or diagnosis of Alzheimer's dementia” (Forschungszentrum Juelich GmbH, priority 2015, dated 2019)
